Measurements from patent publication US5753789A, “Oligonucleotides containing L-nucleosides” (priority 1996, dated 1998).
Where two headings read alike, the source gives them in different places.

Tests used:
[1] = Cytotoxicity in H1 cells (cell count); format: cell-based; details: human
Procedure: (§1) Inhibitory effect of compounds on EBV: The CD50 was performed by
exposing H1 cells to different concentrations of the compounds in normal
growth medium at 37° C. for 72 hours; the cells were then counted
and compared with controls. H1 cells were treated for 5 days and the […]

EBV = test: Inhibitory effect of compounds on EBV (virus production in H1 cells, bioassay of EBV DP activity in Raji cells); format: cell-based, Epstein-Barr virus; details: for Therapeutic Index (CD50/ID90): CD50 in H1 cells / ID90 for EBV; for IC90: human gammaherpesvirus 4, Raji, 120 h, EBV, H1 cells treated for 5 days, bioassay, read-out: ID90 (the source's name)
Procedure: (§2) H1 cells were maintained in […] growth for two days prior to the initiation of treatment. The cells were centrifuged at 600 g for 10 min. at room temperature to separate them from the medium containing pre-existing virus particles. The H1 cells were seeded in 24 well plates at a density of 1×10^5 cells per well in 2 ml of fresh medium with or without drug and incubated at 37° C. for 5 days. The medium containing virion was saved and used for evaluating the inhibitory effect of drugs on virus production and infectivity by use of a bioassay. The virion were pelleted from the cell free medium by centrifugation at 45,000 rpm for 90 min. in a SW-50 Ti rotor (Beckman). The virion were resuspended in 1 ml growth medium and then used to infect 1×10^6 Raji cells for 48 hours. Since the level of EBV DP activity in Raji cells post superinfection is proportional to the number of virions added, the EBV specific DP activity induced was able to be measured. The inhibitory drug effect was calculated by comparing the EBV DP activity to multiple dilution controls.
as §1
and compared with controls. H1 cells were treated for 5 days and the
ID90 was determined by bioassay.

HBV = test: Biological activity against HBV in 2.2.15 cells (HBV DNA, Southern analysis); format: cell-based; details: Hepatitis B virus, 144 h, read-out: Anti-HBV Activity ID50
Procedure: Human hepatoma cells with HBV (2.2.15 cells) were used in the assay. These cells were grown to confluence in minimal essential medium with 10% fetal bovine serum. The media was changed at 3-day intervals. At confluence the treatment with the drugs was initiated and then continued for three days. Another addition of the same concentration of the drug was given at this point after removal of the media from the cultures and cultures maintained for an additional period of 3 days. The medium after the 6-day treatment was harvested and the viral particles precipitated by the polyethylene glycol method. The particles were subsequently digested and then processed for Southern analysis. The blots were hybridized to an HBV-specific probe and viral DNA amounts assessed in comparison to DNA levels from cultures not treated with the drugs. The genomic DNA was digested with Hind III and subjected to Southern analysis. Levels of the episomal DNA were determined in relation to the integrated HBV DNA. The drug concentrations that cause 50% inhibition of the DNA (ID50) as compared to the controls were calculated.

[2] = Toxicity in BDF1 female mice (body weight over thirty days); format: in vivo; details: 10 mg/kg and 50 mg/kg bid
Procedure: FIG. 13a illustrates the change in body weight over thirty days of control BDF1 female mice. FIGS. 13b and 13c illustrate the change in body weight over thirty days of BDFI female mice dosed with 10 mg/kg (13b) and 50 mg/kg (13c) bid of L-(-)-FMAU. The body weight presented represents the mean and standard deviation of that of five to seven mice.

[3] = tested on: mitochondrial DNA content in H1 cells; test: Mitochondrial DNA content of H1 cells (slot blot assay); format: cell-based, human; details: 1 mM, 6 days
Procedure: as §2
Slot Blot Assay--The amount of mitochondrial DNA was measured by the slot blot method (2). […] The amount of mitochondrial DNA in the treated and non-treated H1 cells was quantified by densitometer (LKB Ultroscan XL).

[4] = Clinical chemistry of mouse plasma after L-(-)-FMAU treatment; format: in vivo; details: 10 or 50 mg/kg bid, thirty days
Procedure: FIGS. 14-20 provide the clinical chemistry of mouse plasma after administration of L-(-)-FMAU at 10 mg/kg (three mice) or 50 mg/kg (three mice) bid for thirty days.

[5] = Clearance of L-(-)-FMAU from liver after oral administration; format: in vivo; details: mice, 10 or 50 mg/kg
Procedure: (§3) The clearance of L-(-)-FMAU from the plasma and liver of mice after oral administration was evaluated. Mice were […] with L-(-)-FMAU which was tritium labeled (radiospecificity of […]).
(§4) FIG. 11 is a graph of the plasma concentration of L-(-)-FMAU in mice after oral administration over time, and FIG. 12 is a graph of the concentration of L-(-)-FMAU in mouse liver after oral administration over time (cross, 10 mg/kg administered bid (bi-daily) for 30 days prior to pharmacokinetic study and then study carried out on day thirty-one on administration of same concentration; dark circle, 50 mg/kg administered bid for 30 days prior to study and then study carried out on day thirty-one on administration of same concentration; open circle, 50 mg/kg administered for the first time on the first day of the study).
(§5) At the times indicated (see FIGS. […]) the mice were bled from their retro-orbital sinus using heparinized capillaries. The plasma was extracted with trichloroacetic acid and neutralized with freon/trioctylamine. Supernatants were directly counted and the concentration calculated.

[6] = Clearance of L-(-)-FMAU from plasma after oral administration; format: in vivo; details: mice, 10 or 50 mg/kg
Procedure: as §3, §4, §5

[7] = 37° C., 72 hours, Table 2, read-out: CD50
[8] = Table I, read-out: (H1 cells) CD50

Compound | CC50 at 72 h [1, 7] [µM] | Therapeutic Index (CD50/ID90) (EBV) | CC50 at 72 h [1, 8] [µM] | IC90 (EBV) [µM] | further results
Nc1nc2c(ncn2COCCO)c(=O)[nH]1 [ACV] | 1000 ± 75 | 20 | – | – | –
CCc1cn([C@@H]2O[C@H](CO)[C@@H](O)[C@@H]2F)c(=O)[nH]c1=O [D-FEAU] | – | 2000 | 2000 | – | –
Nc1nc(=O)n([C@@H]2O[C@H](CO)[C@@H](O)[C@@H]2F)cc1I [D-FIAC] | 125 ± 15 | 25 | – | 5 ± 0.5 | –
O=c1[nH]c(=O)n([C@@H]2O[C@H](CO)[C@@H](O)[C@@H]2F)cc1I [D-FIAU] | 20 ± 4 | 40 | – | 0.5 ± 0.05 | –
Cc1cn([C@@H]2O[C@H](CO)[C@@H](O)[C@@H]2F)c(=O)[nH]c1=O [D-FMAU] | – | 50 | 50 | – | IC50 (HBV): 2 µM
Nc1nc2c(ncn2COC(CO)CO)c(=O)[nH]1 [DHPG] | 75 ± 6 | 15 | – | – | –
CCc1cn([C@H]2O[C@@H](CO)[C@H](O)[C@H]2F)c(=O)[nH]c1=O [L-FEAU, 2'-fluoro-5-ethyl-β-L-arabinofuranosyluridine] | – | 15 | 900 | 60 ± 11 | –
Nc1nc(=O)n([C@H]2O[C@@H](CO)[C@H](O)[C@H]2F)cc1I [L-FIAC, 2'-fluoro-5-iodo-β-L-arabinofuranosylcytosine] | 400 ± 35 | > 40 | – | < 10 | –
O=c1[nH]c(=O)n([C@H]2O[C@@H](CO)[C@H](O)[C@H]2F)cc1I [L-FIAU, 2'-fluoro-5-iodo-β-L-arabinofuranosyluridine] | 240 ± 20 | 12 | – | 20 ± 4 | –
Cc1cn([C@H]2O[C@@H](CO)[C@H](O)[C@H]2F)c(=O)[nH]c1=O [L-FMAU, 2'-fluoro-5-methyl-β-L-arabinofuranosyluridine] | – | 200 | 1000 | – | Change in body weight [2]: did not appear to significantly affect the weight of the mice over thirty days; Tolerability [2]: well tolerated; Inhibition of mitochondrial DNA content [3]: No inhibition of mitochondrial DNA content in H1 cells was observed; ALT (SGPT) in mouse plasma [4]: With the exception of mouse 50-2 (for both SGOT and SGPT) and mouse 10-2 (for SGOT only), the enzyme levels of the treated mice are not different from those of the control mice; AST (SGOT) in mouse plasma [4]: With the exception of mouse 50-2 (for both SGOT and SGPT) and mouse 10-2 (for SGOT only), the enzyme levels of the treated mice are not different from those of the control mice; Creatinine in mouse plasma [4]: With the exception of mouse 50-2, the creatinine levels of the treated mice are not different from those of the control mice; Lactic acid in mouse plasma [4]: not significantly differnt from those of the control mice; Lactic dehydrogenase in mouse plasma [4]: not significantly differnt from those of the control mice; Alkaline phosphatase in mouse plasma ([4]; normal human level 30-114 U/L): somewhat higher than the normal human level; Total bilirubin in mouse plasma ([4]; normal human range less than 1.2 mg/dL): fall within the normal human range; Clearance from liver [5]: substantially cleared from both plasma and liver after four hours; Time of peak concentration in liver [5]: approximately one; IC50 (HBV): 0.1 µM; Clearance from plasma [6]: substantially cleared from both plasma and liver after four hours; Time of peak concentration in plasma [6]: approximately one
Nc1nc2c(ncn2CCC(CO)CO)c(=O)[nH]1 [PCV] | 500 ± 55 | 25 | – | – | –
O=C(O)P(=O)(O)O [PFA] | 1200 ± 100 | 16 | – | – | –
